Laboratory results: ChEMBL document CHEMBL4610120, “New Broad-Spectrum Antibiotics Containing a Pyrrolobenzodiazepine Ring with Activity against Multidrug-Resistant Gram-Negative Bacteria” (J Med Chem, 2020)
In brackets after ≈: the same amount, converted by molar mass.

Tests used:
Klebsiella pneumoniae [1] = assay: Ratio of MIC for multidrug-resistant Klebsiella pneumoniae NCTC 13368 to MIC for multidrug-resistant Klebsiella pneumoniae NCTC 13368 in presence of efflux pump inhibitor PAbetaN; type: functional
Acinetobacter baumannii [2] = assay: Antimicrobial activity against multidrug-resistant Acinetobacter baumannii AYE by microdilution broth method; type: functional
Enterococcus faecium = assay: Antibacterial activity against vancomycin resistant Enterococcus faecium NCTC 12204 by microdilution broth method; type: functional
Klebsiella pneumoniae [3] = assay: Antimicrobial activity against multidrug-resistant Klebsiella pneumoniae M6 by microdilution broth method; type: functional
Klebsiella pneumoniae [4] = assay: Antimicrobial activity against multidrug-resistant Klebsiella pneumoniae 16 by microdilution broth method; type: functional
Klebsiella pneumoniae [5] = assay: Antimicrobial activity against multidrug-resistant Klebsiella pneumoniae 46704 by microdilution broth method; type: functional
Acinetobacter baylyi = assay: Antimicrobial activity against multidrug-resistant Acinetobacter baylyi ADP1 by microdilution broth method; type: functional
Escherichia coli [6] = assay: Antimicrobial activity against multidrug-resistant Escherichia coli CFI_033_NDM by microdilution broth method; type: functional
Escherichia coli [7] = assay: Antimicrobial activity against multidrug-resistant Escherichia coli CFI_160_KPC2 by microdilution broth method; type: functional
Escherichia coli [8] = assay: Antimicrobial activity against multidrug-resistant Escherichia coli CFI_161_NDM_5_OXA_181 by microdilution broth method; type: functional
Escherichia coli [9] = assay: Antimicrobial activity against multidrug-resistant Escherichia coli 319238/UR by microdilution broth method; type: functional
Escherichia coli [10] = assay: Antimicrobial activity against multidrug-resistant Escherichia coli NCTC 12923 by microdilution broth method; type: functional
Burkholderia multivorans [11] = assay: Antimicrobial activity against multidrug-resistant Burkholderia multivorans C1576 by microdilution broth method; type: functional
Burkholderia multivorans [12] = assay: Antimicrobial activity against multidrug-resistant Burkholderia multivorans C1962 by microdilution broth method; type: functional
Burkholderia cenocepacia = assay: Antimicrobial activity against multidrug-resistant Burkholderia cenocepacia K56-2 by microdilution broth method; type: functional
[13] = Antimicrobial activity against multidrug-resistant Burkholderia cepacia complex NCTC 10743 by microdilution broth method; type: functional
Klebsiella pneumoniae [14] = assay: Antibacterial activity against multidrug-resistant Klebsiella pneumoniae NCTC 13368 measured after 10 passages by microdilution broth method; type: functional
Klebsiella pneumoniae [15] = assay: Antimicrobial activity against multidrug-resistant Klebsiella pneumoniae NCTC 13368 in presence of efflux pump inhibitor CCCP by microdilution broth method; type: functional
Pseudomonas aeruginosa [16] = assay: Antimicrobial activity against multidrug-resistant Pseudomonas aeruginosa NCTC 13437 in presence of efflux pump inhibitor CCCP by microdilution broth method; type: functional
Klebsiella pneumoniae [17] = assay: Antimicrobial activity against multidrug-resistant Klebsiella pneumoniae NCTC 13368 in presence of efflux pump inhibitor PAbetaN by microdilution broth method; type: functional
Klebsiella pneumoniae [18] = assay: Antimicrobial activity against multidrug-resistant Klebsiella pneumoniae NCTC 13438 in presence of efflux pump inhibitor PAbetaN by microdilution broth method; type: functional
Acinetobacter baumannii [19] = assay: Antimicrobial activity against Acinetobacter baumannii ATCC 17978 in presence of efflux pump inhibitor PAbetaN by microdilution broth method; type: functional
Pseudomonas aeruginosa [20] = assay: Antimicrobial activity against multidrug-resistant Pseudomonas aeruginosa NCTC 13437 in presence of efflux pump inhibitor PAbetaN by microdilution broth method; type: functional
[21] = Ratio of MIC for Pseudomonas aeruginosa PAO1 to MIC for Pseudomonas aeruginosa PW1783 harboring MexAB-OprM mutant; type: functional
Pseudomonas aeruginosa [22] = assay: Ratio of MIC for Pseudomonas aeruginosa PAO1 to MIC for Pseudomonas aeruginosa PAO1 in presence of membrane permeabilizer PMBN; type: functional
DNA = assay: Stabilization of 5'-FAM-TAT-ATA-TAG-ATA-TTT-TTT-TAT-CTA-TAT-ATA-3'-TAMRA DNA (unknown origin) assessed as reduction in change in melting temperature at 1:1 to 5:1 ligand to DNA ratio measured after 3 hrs by FRET-based assay relative to control; type: ADME, nucleic-acid assay
[23] = Selectivity ratio of cytotoxicity against human WI38 cells to MIC for Pseudomonas aeruginosa PAO1; type: toxicity, cell-based
[24] = Selectivity ratio of cytotoxicity against human WI38 cells to MIC for multidrug-resistant Pseudomonas aeruginosa NCTC 13437; type: toxicity, cell-based
[25] = Selectivity ratio of cytotoxicity against human WI38 cells to MIC for vancomycin resistant Enterococcus faecalis NCTC 12201; type: toxicity, cell-based
[26] = Selectivity ratio of cytotoxicity against human WI38 cells to MIC for vancomycin sensitive Enterococcus faecalis NCTC 775; type: toxicity, cell-based
[27] = Selectivity ratio of cytotoxicity against human WI38 cells to MIC for methicillin resistant Staphylococcus aureus NCTC 13616; type: toxicity, cell-based
[28] = Selectivity ratio of cytotoxicity against human WI38 cells to MIC for methicillin sensitive Staphylococcus aureus NCTC 6571; type: toxicity, cell-based
DNA gyrase [29] = molecular target: DNA gyrase (Staphylococcus aureus, UniProt P0A0K8+P20831); assay: Inhibition of Staphylococcus aureus DNA gyrase using relaxed pNO1 as substrate by gel based fluorescence assay; type: protein-complex assay
DNA gyrase [30] = molecular target: DNA gyrase (Escherichia coli, UniProt P0AES6+P0AES4); assay: Inhibition of Escherichia coli DNA gyrase using relaxed pNO1 as substrate by gel based fluorescence assay; type: protein-complex assay
[31] = molecular target: T1, LexA repressor (Escherichia coli) (UniProt P0A7C2); assay: Induction of Escherichia coli K12 MG1655 lexA promotor measured at 30 mins interval for 20 hrs by fluorescence assay relative to control; conditions: Escherichia coli str. K-12 substr. MG1655
T1 sequence (whole entry): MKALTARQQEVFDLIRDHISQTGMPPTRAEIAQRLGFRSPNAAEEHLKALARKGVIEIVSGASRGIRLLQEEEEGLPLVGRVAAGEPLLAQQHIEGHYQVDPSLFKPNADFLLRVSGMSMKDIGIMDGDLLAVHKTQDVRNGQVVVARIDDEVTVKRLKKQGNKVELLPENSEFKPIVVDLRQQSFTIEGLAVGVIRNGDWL

[32] = molecular target: T2, DNA repair protein RecN (Escherichia coli) (UniProt P05824); assay: Induction of Escherichia coli K12 MG1655 recN promotor measured at 30 mins interval for 20 hrs by fluorescence assay relative to control; conditions: Escherichia coli str. K-12 substr. MG1655
T2 sequence (whole entry): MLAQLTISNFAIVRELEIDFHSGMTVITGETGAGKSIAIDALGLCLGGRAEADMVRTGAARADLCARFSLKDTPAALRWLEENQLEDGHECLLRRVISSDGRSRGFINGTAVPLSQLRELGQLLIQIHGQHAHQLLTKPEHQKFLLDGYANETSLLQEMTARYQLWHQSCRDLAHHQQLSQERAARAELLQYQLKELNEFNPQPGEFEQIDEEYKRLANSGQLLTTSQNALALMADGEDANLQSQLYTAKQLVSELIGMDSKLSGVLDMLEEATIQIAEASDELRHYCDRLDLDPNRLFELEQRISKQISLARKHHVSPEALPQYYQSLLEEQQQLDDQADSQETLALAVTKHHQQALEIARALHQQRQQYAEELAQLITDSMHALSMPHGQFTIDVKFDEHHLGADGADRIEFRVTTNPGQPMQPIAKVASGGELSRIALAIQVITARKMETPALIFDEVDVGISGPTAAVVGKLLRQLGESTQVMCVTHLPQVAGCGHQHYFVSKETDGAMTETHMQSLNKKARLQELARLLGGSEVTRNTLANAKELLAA

DNA gyrase (Staphylococcus aureus, UniProt P0A0K8+P20831), sequence (P0A0K8 whole entry): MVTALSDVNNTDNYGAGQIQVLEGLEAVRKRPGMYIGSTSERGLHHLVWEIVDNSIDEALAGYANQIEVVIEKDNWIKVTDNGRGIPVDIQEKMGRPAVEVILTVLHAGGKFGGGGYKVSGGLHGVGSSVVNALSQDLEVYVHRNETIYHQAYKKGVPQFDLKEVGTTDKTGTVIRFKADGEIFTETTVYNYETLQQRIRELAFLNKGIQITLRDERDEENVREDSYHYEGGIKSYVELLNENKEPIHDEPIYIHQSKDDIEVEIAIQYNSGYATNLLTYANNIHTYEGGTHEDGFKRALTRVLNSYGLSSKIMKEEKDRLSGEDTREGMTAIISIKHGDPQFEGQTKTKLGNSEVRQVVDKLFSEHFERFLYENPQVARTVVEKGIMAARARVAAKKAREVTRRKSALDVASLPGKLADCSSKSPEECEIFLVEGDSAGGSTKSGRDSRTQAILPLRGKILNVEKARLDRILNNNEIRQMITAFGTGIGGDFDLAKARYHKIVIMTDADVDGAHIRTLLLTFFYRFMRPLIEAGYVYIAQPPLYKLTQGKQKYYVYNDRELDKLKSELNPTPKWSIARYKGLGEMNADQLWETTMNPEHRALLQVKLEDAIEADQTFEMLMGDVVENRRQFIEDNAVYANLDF
DNA gyrase (Staphylococcus aureus, UniProt P0A0K8+P20831), sequence (P20831 whole entry): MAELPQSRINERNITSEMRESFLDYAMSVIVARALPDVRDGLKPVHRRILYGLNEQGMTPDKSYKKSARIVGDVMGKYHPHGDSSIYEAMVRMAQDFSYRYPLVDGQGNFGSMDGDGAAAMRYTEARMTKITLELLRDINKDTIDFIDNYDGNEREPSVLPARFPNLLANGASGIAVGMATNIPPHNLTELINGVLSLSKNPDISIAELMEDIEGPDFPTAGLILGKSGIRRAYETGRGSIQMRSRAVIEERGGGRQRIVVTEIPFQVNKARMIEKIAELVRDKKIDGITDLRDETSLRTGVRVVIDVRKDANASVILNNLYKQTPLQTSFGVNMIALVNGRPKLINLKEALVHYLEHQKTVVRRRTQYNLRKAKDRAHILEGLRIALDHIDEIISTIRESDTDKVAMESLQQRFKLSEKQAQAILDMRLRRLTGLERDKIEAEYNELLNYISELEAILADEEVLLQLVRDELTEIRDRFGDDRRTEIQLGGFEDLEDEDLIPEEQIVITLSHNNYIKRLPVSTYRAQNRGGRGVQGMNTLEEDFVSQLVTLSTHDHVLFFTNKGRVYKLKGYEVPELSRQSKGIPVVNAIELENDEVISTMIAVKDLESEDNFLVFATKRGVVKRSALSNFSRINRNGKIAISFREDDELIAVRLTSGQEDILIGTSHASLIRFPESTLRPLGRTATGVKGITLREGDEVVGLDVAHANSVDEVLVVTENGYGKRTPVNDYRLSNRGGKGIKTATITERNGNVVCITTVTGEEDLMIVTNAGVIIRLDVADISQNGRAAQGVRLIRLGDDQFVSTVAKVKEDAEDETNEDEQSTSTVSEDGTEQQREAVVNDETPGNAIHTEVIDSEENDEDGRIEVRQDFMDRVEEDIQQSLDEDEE

Compound | Ratio (Klebsiella pneumoniae [1]) | MIC (Acinetobacter baumannii [2]) | MIC (Enterococcus faecium) | MIC (Klebsiella pneumoniae [3]) | MIC (Klebsiella pneumoniae [4]) | MIC (Klebsiella pneumoniae [5]) | MIC (Acinetobacter baylyi) | MIC (Escherichia coli [6]) | MIC (Escherichia coli [7]) | MIC (Escherichia coli [8]) | MIC (Escherichia coli [9]) | MIC (Escherichia coli [10]) | MIC (Burkholderia multivorans [11]) | MIC (Burkholderia multivorans [12]) | MIC (Burkholderia cenocepacia) | MIC [13] | MIC (Klebsiella pneumoniae [14]) | MIC (Klebsiella pneumoniae [15]) | MIC (Pseudomonas aeruginosa [16]) | MIC (Klebsiella pneumoniae [17]) | further results
COc1cc2c(cc1OCCCC(=O)Nc1cc(C(=O)Nc3ccc4oc(C(=O)N5CCSCC5)cc4c3)n(C)c1)N=C[C@@H]1CCCN1C2=O | 4 | 2 to 4 mg/L (≈ 2.86 to 5.72 µM) | 0.03 mg/L (≈ 0.0429 µM) | 1 mg/L (≈ 1.43 µM) | 1 mg/L (≈ 1.43 µM) | 4 mg/L (≈ 5.72 µM) | 1 mg/L (≈ 1.43 µM) | 1 mg/L (≈ 1.43 µM) | 4 mg/L (≈ 5.72 µM) | 1 mg/L (≈ 1.43 µM) | 1 mg/L (≈ 1.43 µM) | 2 mg/L (≈ 2.86 µM) | 16 mg/L (≈ 22.9 µM) | > 32 mg/L | 1 mg/L (≈ 1.43 µM) | 16 mg/L (≈ 22.9 µM) | ≥ 128 mg/L | > 32 mg/L | > 32 mg/L | 8 mg/L | MIC (Klebsiella pneumoniae [18]): 4 mg/L; MIC (Acinetobacter baumannii [19]): 2 mg/L; MIC (Pseudomonas aeruginosa [20]): > 32 mg/L; Ratio [21]: > 8; Ratio (Pseudomonas aeruginosa [22]): >=8 - 64; fold change (FC) (DNA): 3 to 4; selectivity ratio [23]: 10; selectivity ratio [24]: 10; selectivity ratio [25]: 100; selectivity ratio [26]: 100; selectivity ratio [27]: 100; selectivity ratio [28]: 100; IC50 (DNA gyrase [29]): Nd(Insoluble); IC50 (DNA gyrase [30]): Nd(Insoluble); fold change (FC) [31]: 5 to 9; fold change (FC) [32]: 6 to 11
COc1cc2c(cc1OCCCC(=O)Nc1cc(C(=O)Nc3ccc4sc(C(=O)N(C)C)cc4c3)n(C)c1)N=C[C@@H]1CCCN1C2=O | 4 | 0.5 to 1 mg/L (≈ 0.761 to 1.52 µM) | 0.03 mg/L (≈ 0.0457 µM) | 1 mg/L (≈ 1.52 µM) | 0.25 to 1 mg/L (≈ 0.381 to 1.52 µM) | 1 mg/L (≈ 1.52 µM) | 0.125 mg/L (≈ 0.19 µM) | 0.5 mg/L (≈ 0.761 µM) | 0.5 mg/L (≈ 0.761 µM) | 0.5 mg/L (≈ 0.761 µM) | 0.5 mg/L (≈ 0.761 µM) | 0.5 mg/L (≈ 0.761 µM) | 1 mg/L (≈ 1.52 µM) | 2 mg/L (≈ 3.05 µM) | 2 mg/L (≈ 3.05 µM) | 1 to 2 mg/L (≈ 1.52 to 3.05 µM) | > 32 mg/L | 2 mg/L | > 32 mg/L | 0.5 mg/L | MIC (Klebsiella pneumoniae [18]): 0.25 mg/L; MIC (Acinetobacter baumannii [19]): 0.25 mg/L; MIC (Pseudomonas aeruginosa [20]): 16 mg/L; Ratio [21]: > 8; Ratio (Pseudomonas aeruginosa [22]): >=4 - 16; fold change (FC) (DNA): 3 to 4; selectivity ratio [23]: 10; selectivity ratio [24]: 10; selectivity ratio [25]: 100; selectivity ratio [26]: 100; selectivity ratio [27]: 100; selectivity ratio [28]: 100; IC50 (DNA gyrase [29]; read-out: IC50 (converted)): 4.81 µM; IC50 (DNA gyrase [30]): Nd(Insoluble); fold change (FC) [31]: 5 to 9; fold change (FC) [32]: 6 to 11
